Experimental findings from PubChem BioAssay (NCI) are described below.

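Dose response: 5 concentrations. Exposure: 48 h. Format: 96-well plates. Endpoint: linear interpolation; highest concentration if not reached. GI50 = concentration required for 50% inhibition of growth. TGI denotes the concentration required for complete inhibition of growth.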

Some test systems named below: OVCAR-5 ovarian; BT-549 breast; T-47D breast; HOP-92 NSCLC; OVCAR-8 ovarian; HCC-2998 colon; CCRF-CEM leukemia; A498 renal; OVCAR-3 ovarian; UACC-62 melanoma; SW-620 colon; NCI/ADR-RES ovarian; NCI-H460 lung; HL-60(TB) leukemia; SNB-19 CNS; SN12C renal.
Experiment in all cases: NCI anticancer screen, dose series, 48 h

`CC(=O)Nc1cc2c(cc1O)CC[C@@H]1[C@@H]2CC[C@]2(C)[C@@H](O)CC[C@@H]12`: the TGI was more than 100 µM with OVCAR-5 ovarian; 86.3 µM with BT-549 breast; 95.8 µM in the test with T-47D breast; more than 100 µM in the test with HOP-92 NSCLC; more than 100 µM with OVCAR-8 ovarian; 82.4 µM in the test on HCC-2998 colon. The TGI with CCRF-CEM leukemia was more than 100 µM; in the test with A498 renal, 70.7 µM; in the test with OVCAR-3 ovarian, more than 100 µM; with UACC-62 melanoma, more than 100 µM; in the test with SW-620 colon, 71.9 µM; with NCI/ADR-RES ovarian it was 55.9 µM. In addition, the TGI in the test on NCI-H460 lung, in the test with HL-60(TB) leukemia, in the test on SNB-19 CNS and in the test on SN12C renal was more than 100 µM throughout. Further, the GI50 in the test on OVCAR-3 ovarian is 9.2 µM; with UACC-62 melanoma it was 31.2 µM; with SN12C renal, 48.5 µM.
Regarding `O=c1cc(-c2ccccc2)oc2ccc(Oc3nnnn3-c3ccccc3)cc12`, the TGI was more than 100 µM in the test with OVCAR-5 ovarian; 70.7 µM with BT-549 breast; more than 100 µM with T-47D breast; 58.1 µM in the test on HOP-92 NSCLC; more than 100 µM with OVCAR-8 ovarian; more than 100 µM in the test with HCC-2998 colon. Further, the TGI in the test on CCRF-CEM leukemia, in the test on A498 renal, in the test on OVCAR-3 ovarian, in the test with UACC-62 melanoma, in the test on SW-620 colon and in the test on NCI/ADR-RES ovarian was more than 100 µM in each case. The TGI in the test with NCI-H460 lung was more than 100 µM; in the test on HL-60(TB) leukemia, more than 100 µM; in the test on SNB-19 CNS, more than 82.6 µM; in the test with SN12C renal it was more than 100 µM.
Turning to `CC(C)(C)OC(=O)NC(Cc1cnc[nH]1)C(=O)N1CCCC1C(N)=O` (stereo unspecified), the TGI in the test with OVCAR-5 ovarian, in the test with BT-549 breast, with T-47D breast, with HOP-92 NSCLC, in the test on OVCAR-8 ovarian and in the test with HCC-2998 colon was more than 100 µM each time. Also, the TGI in the test with CCRF-CEM leukemia, in the test with A498 renal, in the test with OVCAR-3 ovarian, in the test on UACC-62 melanoma, in the test on SW-620 colon and with NCI/ADR-RES ovarian was more than 100 µM each time. Moreover, the TGI in the test on NCI-H460 lung, with HL-60(TB) leukemia, in the test on SNB-19 CNS and in the test on SN12C renal was more than 100 µM each time.
For the compound `CCOC(=O)c1cccc([N+](=O)[O-])c1N`, the TGI in the test with OVCAR-5 ovarian, in the test with BT-549 breast, in the test with T-47D breast, in the test on HOP-92 NSCLC, in the test with OVCAR-8 ovarian and in the test on HCC-2998 colon was more than 100 µM throughout. In addition, the TGI in the test on CCRF-CEM leukemia, with A498 renal, in the test on OVCAR-3 ovarian, with UACC-62 melanoma, with SW-620 colon and in the test with NCI/ADR-RES ovarian was more than 100 µM in each case. The TGI in the test with NCI-H460 lung, with HL-60(TB) leukemia, with SNB-19 CNS and with SN12C renal was more than 100 µM throughout.
With `O=C(Nc1ccccc1C(=O)O)/C(=C/c1ccccc1)NC(=O)c1ccccc1`, the TGI in the test on OVCAR-5 ovarian, with BT-549 breast, with T-47D breast, with HOP-92 NSCLC, with OVCAR-8 ovarian and in the test on HCC-2998 colon was more than 100 µM each time. Also, the TGI in the test on CCRF-CEM leukemia, in the test on A498 renal, in the test on OVCAR-3 ovarian, with UACC-62 melanoma, in the test with SW-620 colon and with NCI/ADR-RES ovarian was more than 100 µM each time. The TGI in the test with NCI-H460 lung, with HL-60(TB) leukemia, with SNB-19 CNS and in the test on SN12C renal was more than 100 µM each time.
On to `COc1cc(C(N)=O)cc(NC(=O)/C=C/c2ccccc2)c1OC`, for which the TGI with OVCAR-5 ovarian, in the test with BT-549 breast, with T-47D breast, with HOP-92 NSCLC, in the test on OVCAR-8 ovarian and in the test on HCC-2998 colon was more than 100 µM in each case. Further, the TGI in the test with CCRF-CEM leukemia, with A498 renal, with OVCAR-3 ovarian, in the test with UACC-62 melanoma, with SW-620 colon and in the test on NCI/ADR-RES ovarian was more than 100 µM in each case. In addition, the TGI in the test with NCI-H460 lung, in the test with HL-60(TB) leukemia, in the test on SNB-19 CNS and with SN12C renal was more than 100 µM each time.
Turning to `CC1OC(OC2C(O)COC(OC3C(C)OC(OC4C(OC(=O)[C@]56CCC(C)(C)C[C@@H]5C5=CCC7[C@@]8(C)C[C@H](O)[C@H](OC9OC(CO)C(O)C(OC%10OC(CO)C(O)C(O)C%10O)C9O)[C@@](C)(CO)[C@@H]8CC[C@@]7(C)[C@]5(C)CC6)OCC(O)C4O)C(O)C3OC3OCC(O)C(O)C3O)C2O)C(O)C(O)C1O` (stereo partly specified), the TGI in the test with OVCAR-5 ovarian stood at 22.8 µM; with BT-549 breast it was 25.8 µM; in the test on T-47D breast, 14 µM; in the test on HOP-92 NSCLC it was 31.1 µM; in the test with OVCAR-8 ovarian, 29 µM; in the test on HCC-2998 colon it was 4.44 µM. The TGI with CCRF-CEM leukemia amounted to 25.2 µM; with A498 renal it was 5 µM; in the test with OVCAR-3 ovarian, 27.2 µM; in the test on UACC-62 melanoma, 12.6 µM; in the test with SW-620 colon it was 20.6 µM; with NCI/ADR-RES ovarian, 26.4 µM. The TGI in the test on NCI-H460 lung was found to be 34.8 µM; in the test on HL-60(TB) leukemia, 15 µM; in the test on SNB-19 CNS, 20.3 µM; with SN12C renal, 3.87 µM.
As to `CCN(CC)C(=S)SC1CCOP(=O)(N(CCCl)CCCl)N1C` (stereo unspecified), the TGI in the test on OVCAR-5 ovarian is more than 100 µM; in the test with BT-549 breast, more than 100 µM; in the test with T-47D breast, more than 100 µM; with HOP-92 NSCLC, 43.9 µM; in the test with OVCAR-8 ovarian, 49.2 µM; in the test with HCC-2998 colon, more than 68.7 µM. Moreover, the TGI is 43.1 µM in the test on CCRF-CEM leukemia; more than 100 µM in the test with A498 renal; more than 100 µM in the test on OVCAR-3 ovarian; 17.3 µM in the test on UACC-62 melanoma; more than 34.9 µM with SW-620 colon; more than 100 µM in the test on NCI/ADR-RES ovarian. The TGI with NCI-H460 lung is 14.3 µM; with HL-60(TB) leukemia, 32.2 µM; in the test with SNB-19 CNS, more than 100 µM; in the test on SN12C renal, 46 µM.
